Test results: patent US7273862B2, “Aminoalkyl substituted (benzodioxan, benzofuran or benzopyran) derivatives” (Janssen Pharmaceutica N.V., priority 1999, dated 2007)
Where a name gives a salt, the structure may show the parent alone.

Legend:
[1] = test system: fundus of the stomach (gastric tone) in conscious dogs; test: Gastric tone measured by an electronic barostat in conscious dogs; format: in vivo, beagle dogs; details: I.D. administration, 0.63 mg/kg, 1 hour observation period, constant pressure of 6 mmHg
Text: C. Pharmacological Examples C.1. Gastric Tone Measured by an Electronic Barostat in Conscious Dogs
Gastric tone cannot be measured by manometric methods. Therefore an electronic barostat was used. This allows the study of the physiological pattern and regulation of gastric tone in conscious dogs and the influence of test-compounds on this tone.
The barostat consists of an air injection system which is connected by a double-lumen 14-French polyvinyl tube to an ultrathin flaccid polyethylene bag (maximal volume:±700 ml). Variations in gastric tone were measured by recording changes in the volume of air within an intragastric bag, maintained at a constant pressure. The barostat maintains a constant pressure (preselected) within a flaccid air-filled bag introduced into the stomach, changing the volume of air within the bag by an electronic feedback system.
Thus, the barostat measures gastric motor activity (contraction or relaxation) as changes in intragastric volume (decrease or increase resp.) at a constant intragastric pressure. […]
When during a stabilisation period of maximum 90 minutes, the gastric volume is stable during 15 minutes at a constant pressure of 6 mmHg (about 0.81 kPa), the test compound was administered subcutaneously (S.C.), or intraduodenally (I.D.). Test compounds were screened, i.e. changes in gastric volume were measured, usually at 0.63 mg/kg. […]

Row | Compound | Maximum change in volume (mean maximal change in volume on relaxation of the fundus) [1] | melting point
1 | O=C1NCCCN1CC(O)CNCC(O)C1CCc2ccccc2O1 (centres unmarked) [Compound 15, [S(A)]-1-[3-[[2-(3,4-dihydro-2H-1-benzopyran-2-yl)-2-hydroxyethyl]amino]-2-hydroxypropyl]tetrahydro-2(1H)-pyrimidinone monohydrochloride dihydrate] | 5 mL | 
2 | O=C1NCCCN1CC(O)CNCC(O)C1CCc2ccccc2O1 (centres unmarked) (as salt: hydrochloride) (hydrate or solvate) [Compound 15, [S(A)]-1-[3-[[2-(3,4-dihydro-2H-1-benzopyran-2-yl)-2-hydroxyethyl]amino]-2-hydroxypropyl]tetrahydro-2(1H)-pyrimidinone monohydrochloride dihydrate] |  | 138 °C
